Columns and labels:
NCI-H446 cell line = assay: Cell viability assay for NCI-H446 cell line; type: cell-based; settings: Homo sapiens, NCI-H446, 120 h; H446 cells, 5 days culture, EZ-Cytox; read-out: IC50 value (Level)
How it was run: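 H446 cells seeded 24 h before treatment with compound in 3-fold dilutions, 1000 to 0.15 nM, then cultured 5 days at 37 °C, 5% CO2 in RPMI 1640/10% FBS. Viability read with EZ-Cytox (4 h) as absorbance at 450 nm.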

Aurora kinase A (AURKA) = target: T1, Aurora kinase A (AURKA) (Homo sapiens, UniProt O14965); assay: Luciferase assay for AURKA in HeLa LgBit (AURKA-HiBit KI) cell line; type: cell-based; settings: HeLa LgBit (AURKA-HiBit KI) cells, measured after 12 hours
T1 construct: endogenous in cells; host or cells: HeLa LgBit (AURKA-HiBit KI), CRISPR/Cas9 knock-in at the endogenous AURKA locus
T1 sequence (O14965 1-403): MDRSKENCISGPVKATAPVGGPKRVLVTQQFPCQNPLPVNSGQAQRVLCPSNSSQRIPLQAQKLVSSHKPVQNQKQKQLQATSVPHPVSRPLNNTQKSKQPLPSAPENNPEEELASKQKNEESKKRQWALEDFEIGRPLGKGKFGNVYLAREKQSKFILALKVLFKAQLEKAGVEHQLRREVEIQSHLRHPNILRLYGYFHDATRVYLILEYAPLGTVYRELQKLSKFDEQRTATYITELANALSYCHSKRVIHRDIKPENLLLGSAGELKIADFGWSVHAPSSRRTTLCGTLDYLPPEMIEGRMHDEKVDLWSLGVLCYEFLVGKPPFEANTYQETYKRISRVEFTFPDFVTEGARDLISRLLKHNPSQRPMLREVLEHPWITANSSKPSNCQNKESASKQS
How it was run: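 HeLa cells stably expressing LgBit, with HiBit knocked in at the C-terminus of endogenous AURKA; 3×10^4 cells seeded, 18 h, then Endurazine substrate 2 h. Compounds tested at 10 nM or 100 nM; luminescence read at 470-480 nm after 12 h as real-time read-out.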

SMILES	luminescence value (Level) (Aurora kinase A (AURKA); 10 nM compound)	luminescence value (Level) (Aurora kinase A (AURKA); 100 nM compound)	IC50 (NCI-H446 cell line) [nM]
O=C1CCC(Nc2ccc(N3CCN(C[C@H]4CC[C@H](NC(=O)c5ccc(Nc6ncc(F)c(Nc7ccc(C(=O)Nc8ccccc8Cl)cc7)n6)cc5)CC4)CC3)cc2)C(=O)N1 (stereo partly drawn) [Compound 26, N-(2-chlorophenyl)-4-((2-((4-(((1r,4r)-4-((4-(4-((2,6-dioxopiperidin-3-yl)amino)phenyl)piperazin-1-yl)methyl)cyclohexyl)carbamoyl)phenyl)amino)-5-fluoropyrimidin-4-yl)amino)benzamide]	B (B is 0.3 to 0.5)	B (B is 0.2 to 0.4)	< 50
O=C1CCC(Nc2ccc(N3CCN(CCN4CCC(NC(=O)c5ccc(Nc6ncc(F)c(Nc7ccc(C(=O)Nc8ccccc8Cl)cc7)n6)cc5)CC4)CC3)cc2)C(=O)N1 (stereo not drawn) [Compound 73, N-(2-chlorophenyl)-4-((2-((4-((1-(2-(4-(4-((2,6-dioxopiperidin-3-yl)amino)phenyl)piperazin-1-yl)ethyl)piperidin-4-yl)carbamoyl)phenyl)amino)-5-fluoropyrimidin-4-yl)amino)benzamide]	A (A is <0.3)	A (A is <0.2)	100 to 150
O=C1CCC(c2ccc(N3CCC(CN4CC5(CC(NC(=O)c6ccc(Nc7ncc(F)c(Nc8ccc(C(=O)Nc9ccccc9Cl)cc8)n7)cc6)C5)C4)CC3)c(F)c2)C(=O)N1 (stereo not drawn) [Compound 77, N-(2-chlorophenyl)-4-((2-((4-((2-((1-(4-(2,6-dioxopiperidin-3-yl)-2-fluorophenyl)piperidin-4-yl)methyl)-2-azaspiro[3.3]heptan-6-yl)carbamoyl)phenyl)amino)-5-fluoropyrimidin-4-yl)amino)benzamide]	A (A is <0.3)	A (A is <0.2)	50 to 100
O=C1CCC(c2ccc(N3CCC(CN4CCN(C(=O)Cc5ccc(Nc6ncc(F)c(Nc7ccc(C(=O)Nc8ccccc8Cl)cc7)n6)cc5)CC4)CC3)cc2)C(=O)N1 (stereo not drawn) [Compound 1, N-(2-chlorophenyl)-4-((2-((4-(2-(4-((1-(4-(2,6-dioxopiperidin-3-yl)phenyl)piperidin-4-yl)methyl)piperazin-1-yl)-2-oxoethyl)phenyl)amino)-5-fluoropyrimidin-4-yl)amino)benzamide]	C (C is 0.5 to 0.7)	A (A is <0.2)	100 to 150
CN(CC1CCN(c2ccc(NC3CCC(=O)NC3=O)cc2)CC1)[C@H]1CC[C@H](NC(=O)c2ccc(Nc3ncc(F)c(Nc4ccc(C(=O)Nc5ccccc5Cl)cc4)n3)cc2)CC1 (stereo partly drawn) [Compound 69, N-(2-chlorophenyl)-4-((2-((4-(((1r,4r)-4-(((1-(4-((2,6-dioxopiperidin-3-yl)amino)phenyl)piperidin-4-yl)methyl)(methyl)amino)cyclohexyl)carbamoyl)phenyl)amino)-5-fluoropyrimidin-4-yl)amino)benzamide]	A (A is <0.3)	A (A is <0.2)	50 to 100
O=C1CCC(Nc2ccc(N3CC(CN4CC5CN(C(=O)c6ccc(Nc7ncc(F)c(Nc8ccc(C(=O)Nc9ccccc9Cl)cc8)n7)cc6)CC5C4)C3)cc2)C(=O)N1 (stereo not drawn) [Compound 35, N-(2-chlorophenyl)-4-((2-((4-(5-((1-(4-((2,6-dioxopiperidin-3-yl)amino)phenyl)azetidin-3-yl)methyl)octahydropyrrolo[3,4-c]pyrrole-2-carbonyl)phenyl)amino)-5-fluoropyrimidin-4-yl)amino)benzamide]	B (B is 0.3 to 0.5)	B (B is 0.2 to 0.4)	150 to 200
O=C1CCC(c2ccc(N3CCN(CC4CCN(C(=O)c5ccc(Nc6ncc(F)c(Nc7ccc(C(=O)Nc8ccccc8Cl)cc7)n6)cc5)CC4)CC3)cc2)C(=O)N1 (stereo not drawn) [Compound 3, N-(2-chlorophenyl)-4-((2-((4-(4-((4-(4-(2,6-dioxopiperidin-3-yl)phenyl)piperazin-1-yl)methyl)piperidine-1-carbonyl)phenyl)amino)-5-fluoropyrimidin-4-yl)amino)benzamide]	C (C is 0.5 to 0.7)	A (A is <0.2)	50 to 100

Further lines, with some results ahead:

luminescence value (Level) (Aurora kinase A (AURKA); 10 nM compound)	luminescence value (Level) (Aurora kinase A (AURKA); 100 nM compound)	SMILES	IC50 (NCI-H446 cell line) [nM]
B (B is 0.3 to 0.5)	A (A is <0.2)	O=C1CCC(Nc2cc(F)c(N3CCN(CCC4CCN(NC(=O)c5ccc(Nc6ncc(F)c(Nc7ccc(NC(=O)c8ccccc8F)cc7)n6)cc5F)CC4)CC3)cc2F)C(=O)N1 (stereo not drawn) [Compound 109, N-(4-(2-(4-(4-((2,6-dioxopiperidin-3-yl)amino)-2,5-difluorophenyl)piperazin-1-yl)ethyl)piperidin-1-yl)-2-fluoro-4-((5-fluoro-4-((4-(2-fluorobenzamido)phenyl)amino)pyrimidin-2-yl)amino)benzamide]	50 to 100
B (B is 0.3 to 0.5)	A (A is <0.2)	COc1cc(N2CCN(CCC3CCN(NC(=O)c4ccc(Nc5ncc(F)c(Nc6ccc(C(=O)Nc7ccccc7Cl)cc6)n5)cc4)CC3)CC2)c(F)cc1C1CCC(=O)NC1=O (stereo not drawn) [Compound 118, N-(2-chlorophenyl)-4-((2-((4-((4-(2-(4-(4-(2,6-dioxopiperidin-3-yl)-2-fluoro-5-methoxyphenyl)piperazin-1-yl)ethyl)piperidin-1-yl)carbamoyl)phenyl)amino)-5-fluoropyrimidin-4-yl)amino)benzamide]	50 to 100
A (A is <0.3)	A (A is <0.2)	CN(CC1CCN(c2ccc(C3CCC(=O)NC3=O)cc2F)CC1)[C@H]1CC[C@H](NC(=O)c2ccc(Nc3ncc(F)c(Nc4ccc(C(=O)Nc5ccccc5Cl)cc4)n3)cc2)CC1 (stereo partly drawn) [Compound 80, N-(2-chlorophenyl)-4-((2-((4-(((1r,4r)-4-(((1-(4-(2,6-dioxopiperidin-3-yl)-2-fluorophenyl)piperidin-4-yl)methyl)(methyl)amino)cyclohexyl)carbamoyl)phenyl)amino)-5-fluoropyrimidin-4-yl)amino)benzamide]	50 to 100
B (B is 0.3 to 0.5)	A (A is <0.2)	Cc1cc(N2CCN(CCC3CCN(NC(=O)c4ccc(Nc5ncc(F)c(Nc6ccc(C(=O)Nc7ccccc7Cl)cc6)n5)cc4)CC3)CC2)ccc1NC1CCC(=O)NC1=O (stereo not drawn) [Compound 85, N-(2-chlorophenyl)-4-((2-((4-((4-(2-(4-(4-((2,6-dioxopiperidin-3-yl)amino)-3-methylphenyl)piperazin-1-yl)ethyl)piperidin-1-yl)carbamoyl)phenyl)amino)-5-fluoropyrimidin-4-yl)amino)benzamide]	150 to 200

From US20260226071A1, “2, 4-DIANILINOPYRIMIDINE-BASED AURORA-A KINASE SELECTIVE DEGRADATION INDUCING COMPOUNDS” (UPPTHERA, INC., priority 2023, published 2026)
